# In the oligonucleotide strings, read from the 5' end, every base follows the letter of its sugar. An asterisk marks phosphorothioate; unmarked linkages are phosphodiester. Other units and linkages are bracketed, terminal groups are in braces. A string of capitals states the bases alone. e = 2'-O-(2-methoxyethyl) (MOE); [5mC] = 5-methylcytosine; d = 2'-deoxy (DNA)
# Key:
# human p38β mRNA [1] = test: Inhibition of human p38β mRNA expression in HUVEC cells, Northern blot; format: cell-based
# Protocol: The human Jurkat T-cell line (American Type Culture Collection, Manassas, Va.) was maintained in RPMI 1640 growth media supplemented with 10% fetal bovine serum (FBS; Hyclone, Logan, Utah). HUVEC cells (Clonetics, San Diego, Calif.) were cultivated in endothelial basal media supplemented with 10% FBS (Hyclone, Logan, Utah).
# (§1) HUVEC cells were allowed to reach 75% confluency prior to use. The cells were washed twice with warm (37° C.) OPTI-MEM™ (Life Technologies). The cells were incubated in the presence of the appropriate culture medium, without the growth factors added, and the oligonucleotide formulated in LIPOFECTIN7 (Life Technologies), a 1:1 (w/w) liposome formulation of the cationic lipid N-[1-(2,3-dioleyloxy)propyl]-n,n,n-trimethylammonium chloride (DOTMA), and dioleoyl phosphotidylethanolamine (DOPE) in membrane filtered water. HUVEC cells were treated with 100 nM oligonucleotide in 10 μg/ml LIPOFECTIN7. Treatment was for four hours.
# (§2) Total mRNA was isolated using the RNEASY7 Mini Kit (Qiagen, Valencia, Calif.; similar kits from other manufacturers may also be used), separated on a 1% agarose gel, transferred to HYBOND™-N+ membrane (Amersham Pharmacia Biotech, Piscataway, N.J.), a positively charged nylon membrane, and probed. p38 MAPK probes were made using the Prime-A-Gene7 kit (Promega Corporation, Madison, Wis.), a random primer labeling kit, using mouse p38α or p38β cDNA as a template. A glyceraldehyde 3-phosphate dehydrogenase (G3PDH) probe was purchased from Clontech (Palo Alto, Calif.), Catalog Number 9805-1. The fragments were purified from low-melting temperature agarose, as described in Maniatis, T., et al., Molecular Cloning: A Laboratory Manual, 1989. The G3PDH probe was labeled with REDIVUE™ ^32P-dCTP (Amersham Pharmacia Biotech, Piscataway, N.J.) and Strip-EZ labelling kit (Ambion, Austin, Tex.). mRNA was quantitated by a PhosphoImager (Molecular Dynamics, Sunnyvale, Calif.).
# Every oligonucleotide tested gave at least 50% inhibition.
# Oligonucleotides 17893 (SEQ ID NO. 27), 17899 (SEQ ID NO:33), 17904 (SEQ ID NO. 38), and 17907 (SEQ ID NO. 41) were chosen for dose response studies. HUVEC cells were cultured and treated as described in Example 2 except that the oligonucleotide concentration was varied as shown in Table 6. The Lipofectin7/Oligo ratio was maintained at 3 μg Lipofectin7/100 nM oligo, per ml. mRNA was measured by Northern blot as described in Example 2.
# human p38α mRNA [2] = test: Effect of human p38β oligonucleotides on human p38α mRNA in HUVEC cells; format: cell-based
# Protocol: as §1
# as §2, with “A glyceraldehyde 3-phosphate dehydrogenase (G3PDH) probe was purchased from Clontech (Palo Alto, Calif.), Catalog Number 9805-1. The fragments were purified from low-melting temperature agarose, as described in Maniatis, T., et al., Molecular Cloning: A Laboratory Manual, 1989.” left out, “Calif.). […]” for “Calif.).”
# human p38α mRNA [3] = test: Human p38α mRNA expression in T-24 cells; conditions: initial screen of human p38β oligonucleotides
# human p38β mRNA [4] = test: Human p38β mRNA expression in T-24 cells
# mouse p38α mRNA [5] = test: Inhibition of mouse p38α mRNA expression in bEND.3 cells, Northern blot; format: cell-based
# Protocol: (§3) bEND.3, a mouse endothelial cell line (gift of Dr. Werner Risau; see Montesano et al., Cell, 1990, 62, 435, and Stepkowski et al., J. Immunol., 1994, 153, 5336) were grown in high-glucose DMEM (Life Technologies, Gaithersburg, Md.) medium containing 10% fetal bovine serum (FBS) and 1% Penicillin/Streptomycinin. Cells were plated at approximately 2×10^5 cells per 100 mm dish. Within 48 hours of plating, the cells were washed with phosphate-buffered saline (Life Technologies). Then, Opti-MEM7 medium containing 3 μg/mL LIPOFECTIN^7 and an appropriate amount of oligonucleotide were added to the cells. As a control, cells were treated with LIPOFECTIN^7 without oligonucleotide under the same conditions and for the same times as the oligonucleotide-treated samples.
# (§4) After 4 hours at 37° C., the medium was replaced with high glucose DMEM medium containing 10% FBS and 1% Penicillin/Streptomycinin. The cells were typically allowed to recover overnight (about 18 to 24 hours) before RNA and/or protein assays were performed as described in Example 2. The p38α, p38β and G3PDH probes used were identical to those described in Example 2.
# (§5) Rat p38α antisense oligonucleotides were screened in bEND.3 cells for inhibition of p38α and p38β mRNA expression. The concentration of oligonucleotide used was 100 nM. Oligonucleotides 21844 (SEQ ID NO. 47), 21845 (SEQ ID NO. 48), 21872 (SEQ ID NO. 51), 21873 (SEQ ID NO. 52), 21875 (SEQ ID NO. 54), and 21876 (SEQ ID NO.
# (§6) Mouse p38β antisense sequences were screened in bEND.3 cells as described in Example 4.
# IL-6 secretion = IL-6 secretion by IL-1 stimulated bEND.3 cells, ELISA; format: cell-based; conditions: 48 hours after oligonucleotide
# Protocol: p38 MAPK antisense oligonucleotides were tested for their ability to reduce IL-6 secretion. bEND.3 cells were cultured and treated as described in Example 4 except that 48 hours after oligonucleotide treatment, cells were stimulated for 6 hours with 1 ng/mL recombinant mouse IL-1 (R&D Systems, Minneapolis, Minn.). IL-6 was measured in the medium using an IL-6 ELISA kit (Endogen Inc., Woburn, Mass.).
# mouse p38β mRNA = test: Inhibition of mouse p38β mRNA expression in bEND.3 cells, Northern blot; format: cell-based
# Protocol: as §3, §4, §5, §6
# rat p38α mRNA [6] = test: Inhibition of rat p38α mRNA expression in A-10 cells, Northern blot; format: cell-based; conditions: Rat A-10 cells, 200 nM oligonucleotide, 24 hours
# Protocol: Rat p38α antisense oligonucleotides were screened in Rat A-10 cells. A-10 cells (American Type Culture Collection, Manassas, Va.) were grown in high-glucose DMEM (Life Technologies, Gaithersburg, Md.) medium containing 10% fetal calf serum (FCS). Cells were treated with oligonucleotide as described in Example 2. Oligonucleotide concentration was 200 nM. mRNA was isolated 24 hours after time zero and quantitated by Northern blot as described in Example 2.
# rat p38α mRNA [7] = test: Inhibition of rat p38α mRNA expression in rat cardiac myocytes, Northern blot; format: cell-based; conditions: 1 μM oligonucleotide, 24 hrs
# Protocol: Cells were grown as described in Zechner et al. and transfected with oligonucleotide as described in Example 2. Oligonucleotide concentration was 1 μM. mRNA was isolated 24 hrs after time zero and quantitated using Northern blotting as described in Example 2. An antisense oligonucleotide targeted to JNK-2 was used as a non-specific target control.
# mouse p38α mRNA [8] = test: Mouse p38α mRNA levels in bEND.3 cells, quantitative real-time PCR; format: cell-based; conditions: mouse bEND.3 cells, at 50 nM
# In short: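 Mouse bEND.3 cells, antisense oligonucleotide-treated; p38α mRNA measured by one-step real-time RT-PCR (RT 30 min at 48 °C, then 40 cycles) with a FAM/TAMRA probe. Levels normalized to GAPDH or RiboGreen total RNA, and percent inhibition derived from standard curves of untreated-control mRNA.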
# [9] = 100 nM oligonucleotide in 10 μg/ml LIPOFECTIN, four hours, Northern blot
# [10] = DOSE 100, 1 ng/mL mouse IL-1 for 6 hours
# [11] = 100 nM rat p38α antisense oligonucleotide
substance,measurement,setting,value
"TGCGGCACCTCCCACACGGT (chimeric, phosphorothioate, further chemistry not given here) [ISIS 17893]",% mRNA EXPRESSION,human p38β mRNA [1]; [9],4%
same,% mRNA Inhibition,human p38β mRNA [1]; [9],96%
same,% mRNA EXPRESSION,human p38β mRNA [1]; dose 10 nM,37%
same,% mRNA Inhibition,human p38β mRNA [1]; dose 10 nM,63%
same,% mRNA EXPRESSION,human p38β mRNA [1]; dose 25 nM,18%
same,% mRNA Inhibition,human p38β mRNA [1]; dose 25 nM,82%
same,% mRNA EXPRESSION,human p38β mRNA [1]; dose 50 nM,16%
same,% mRNA Inhibition,human p38β mRNA [1]; dose 50 nM,84%
same,% mRNA EXPRESSION,human p38β mRNA [1]; dose 100 nM,19%
same,% mRNA Inhibition,human p38β mRNA [1]; dose 100 nM,81%
same,IC50 for p38α compared to p38β,human p38α mRNA [2],approximately 4 fold
same,effect on p38α mRNA expression,human p38α mRNA [2],showed an effect on p38α mRNA expression
same,% p38α mRNA EXPRESSION,human p38α mRNA [3],61%
same,% p38β mRNA Expression,"human p38β mRNA [4]; dose 50 nM, relative to control oligonucleotide = 100%",28%
same,% p38β mRNA Expression,"human p38β mRNA [4]; dose 100 nM, relative to control oligonucleotide = 100%",27%
same,% p38β mRNA Expression,"human p38β mRNA [4]; dose 200 nM, relative to control oligonucleotide = 100%",16%
same,% p38β mRNA Expression,human p38β mRNA [4]; initial screen of human p38β oligonucleotides,31%
ToToAoCoAsGsCsCsAsCsCsTsTsCsTsGoGoCoGoC (antisense eTeTeAe[5mC]eA*dG*d[5mC]*d[5mC]*dA*d[5mC]*d[5mC]*dT*dT*d[5mC]*dT*eGeGe[5mC]eGe[5mC]) [ISIS 100804],% p38α mRNA INHIBITION,"mouse p38α mRNA [5]; mouse p38β antisense oligonucleotides, screened as in Example 4",18%
same,% IL-6 INHIBITION,IL-6 secretion; [10],57%
GoAoGoCoCsTsGsTsGsCsCsTsGsGsCsAoCoToGoG (antisense eGeAeGe[5mC]e[5mC]*dT*dG*dT*dG*d[5mC]*d[5mC]*dT*dG*dG*d[5mC]*eAe[5mC]eTeGeG) [ISIS 21877],% p38α mRNA INHIBITION,mouse p38α mRNA [5]; [11],55%
same,% p38β mRNA Inhibition,mouse p38β mRNA; [11],13%
same,% p38α mRNA EXPRESSION,rat p38α mRNA [6],12%
CoAoToCoAsTsCsAsGsGsGsTsCsGsTsGoGoToAoC (antisense e[5mC]eAeTe[5mC]eA*dT*d[5mC]*dA*dG*dG*dG*dT*d[5mC]*dG*dT*eGeGeTeAe[5mC]) [ISIS 21871],% p38α mRNA INHIBITION,mouse p38α mRNA [5]; dose 1 nM,1%
same,% p38α mRNA INHIBITION,mouse p38α mRNA [5]; dose 5 nM,23%
same,% p38α mRNA INHIBITION,mouse p38α mRNA [5]; dose 25 nM,34%
same,% p38α mRNA INHIBITION,mouse p38α mRNA [5]; dose 100 nM (dose response),89%
same,% p38β mRNA Inhibition,mouse p38β mRNA; dose 5 nM,4%
same,% p38β mRNA Inhibition,mouse p38β mRNA; dose 25 nM,24%
same,% p38β mRNA Inhibition,mouse p38β mRNA; dose 100 nM (dose response),56%
same,% IL-6 INHIBITION,"IL-6 secretion; DOSE 200, 1 ng/mL mouse IL-1 for 6 hours",23%
same,% p38α mRNA EXPRESSION,rat p38α mRNA [6],12%
GoGoCoCoAsGsAsGsAsCsTsGsAsAsTsGoToAoGoT (antisense eGeGe[5mC]e[5mC]eA*dG*dA*dG*dA*d[5mC]*dT*dG*dA*dA*dT*eGeTeAeGeT) [ISIS 21846],% p38α mRNA EXPRESSION,rat p38α mRNA [6],8%
same,% p38α mRNA EXPRESSION,rat p38α mRNA [7],41%
same,% p38α mRNA INHIBITION,rat p38α mRNA [7],59%
GoGoCoAoCsAsAsAsGsCsTsAsAsTsGsAoCoToToC (antisense eGeGe[5mC]eAe[5mC]*dA*dA*dA*dG*d[5mC]*dT*dA*dA*dT*dG*eAe[5mC]eTeTe[5mC]) [ISIS 21872],% p38α mRNA INHIBITION,mouse p38α mRNA [5]; dose 25 nM,35%
same,% p38α mRNA INHIBITION,mouse p38α mRNA [5]; dose 100 nM (dose response),76%
same,% p38β mRNA Inhibition,mouse p38β mRNA; dose 100 nM (dose response),1%
same,% p38α mRNA EXPRESSION,rat p38α mRNA [6],13%
AoGoGoToGsCsTsCsAsGsGsAsCsTsCsCoAoToToT (antisense eAeGeGeTeG*d[5mC]*dT*d[5mC]*dA*dG*dG*dA*d[5mC]*dT*d[5mC]*e[5mC]eAeTeTeT) [ISIS 21873],% p38α mRNA INHIBITION,mouse p38α mRNA [5]; dose 25 nM,54%
same,% p38α mRNA INHIBITION,mouse p38α mRNA [5]; dose 100 nM (dose response),92%
same,% p38β mRNA Inhibition,mouse p38β mRNA; dose 1 nM,53%
same,% p38β mRNA Inhibition,mouse p38β mRNA; dose 5 nM,31%
same,% p38β mRNA Inhibition,mouse p38β mRNA; dose 25 nM,28%
same,% p38β mRNA Inhibition,mouse p38β mRNA; dose 100 nM (dose response),25%
same,% IL-6 INHIBITION,IL-6 secretion; [10],49%
same,% p38α mRNA EXPRESSION,rat p38α mRNA [6],19%
same,reduction of p38α mRNA,mouse p38α mRNA [8],> 70%
GoGoAoToGsGsAsCsAsGsAsAsCsAsGsAoAoGoCoA (antisense eGeGeAeTeG*dG*dA*d[5mC]*dA*dG*dA*dA*d[5mC]*dA*dG*eAeAeGe[5mC]eA) [ISIS 21874],% p38α mRNA INHIBITION,mouse p38α mRNA [5]; [11],38%
same,% p38β mRNA Inhibition,mouse p38β mRNA; [11],21%
same,% p38α mRNA EXPRESSION,rat p38α mRNA [6],22%

# — patent US20040171566A1, “Antisense modulation of p38 mitogen activated protein kinase expression” (priority 1999, published 2004)
